# Experiments:
# [1] = test system: TNF-α secretion of keratinocytes which are treated with TPA; assay: TNF-α secretion by TPA-treated immortalized human keratinocytes (ELISA of supernatant); assay type: cell-based; conditions: for % of the control: control: TPA without piperonal
# Procedure: These keratinocytes (cf. WO97/23602) are treated in this connection with inflammation-promoting substances, more specifically with a known skin irritant in the form of a phorbol ester (12-O-tetradecanoylphorbol acetate, abbreviated to TPA), and as a response to this treatment they display a typical inflammatory metabolic reaction, in particular an increase in the secretion of the inflammation-promoting cytokine TNF-α (tumour necrosis factor alpha).
# A substance which inhibits the secretion of TNF-α in the case of TPA-treated keratinocytes in the above model in a dose-dependent manner is regarded as a potentially anti-inflammatory substance.
# (§1) Specifically, the test is carried out by subjecting in vitro human keratinocytes, immortalized in culture, to an inflammation-promoting treatment using the abovementioned 12-O-tetradecanoylphorbol 13-acetate (TPA). The immortalized keratinocyte cell lines used are the cell lines DK2, FK2 or else DK7, which are described in the published International Patent Application WO 97/23602. The cell lines FK2 and DK2 were deposited on 5 October 1995 in accordance with the Budapest Treaty at the DSM depository (Deutsche Sammlung für Mikroorganismen und Zellkulturen GmbH, Mascheroder Weg 1b, D-38124 Braunschweig, Germany) and were given the deposit names DSM ACC2240 and DSM ACC2238. The cell line DK7-NR was deposited on 19 March 1998 at the Pasteur Institute, Paris (CNCM) under the number
# I-1996. It is also possible to use an immortalized keratinocyte line HaCaT, which is described by Boukamp et al. in J. Cell. Biol., 106, 761-771, 1988).
# Petri dishes (6 cm diameter), which contain 4 ml of the serum-free nutrient medium NR-2 (cf. WO97/23602; Biofluids), were inoculated with the abovementioned immortalized keratinocyte cell lines. As soon as confluence of the cell lawn was observed, the nutrient medium was replaced by a fresh, calcium-enriched nutrient medium NR-2 (1.5 mM CaCl2). The dishes were incubated for 2 days, the nutrient medium was replaced by fresh nutrient medium and the dishes were incubated for a further 2 days. […] In parallel, an identical batch without piperonal additive was prepared.
# (§2) During the last 24 h of the above mentioned incubation, TPA in ethanol or a corresponding amount of ethanol was added in an amount of 10 ng/ml. The supernatants were then isolated and, by means of a known ELISA assay (Ruwag AG, Zurich, Switzerland) using specific antibodies to TNF-α (BioSource Inter., US, catalogue numbers KHC0012 and KHC3013), the concentration of TNF-α in the supernatant was determined.
# [2] = test system: TNF-α secretion of keratinocytes; assay: Control experiments without TPA: TNF-α secretion by immortalized human keratinocytes (ELISA of supernatant); assay type: cell-based
# Procedure: as §1
# Petri dishes (6 cm diameter), which contain 4 ml of the serum-free nutrient medium NR-2 (cf. WO97/23602; Biofluids), were inoculated with the abovementioned immortalized keratinocyte cell lines. As soon as confluence of the cell lawn was observed, the nutrient medium was replaced by a fresh, calcium-enriched nutrient medium NR-2 (1.5 mM CaCl2). The dishes were incubated for 2 days, the nutrient medium was replaced by fresh nutrient medium and the dishes were incubated for a further 2 days.
# as §2
# keratinocytes = assay: Cytotoxic activity on the keratinocytes; conditions: concentrations used in the experiments (0.01-0.1%)
# [3] = TPA + hydrocortisone (concentration not given)
SMILES,Amount of TNF-α determined ([1]; TPA 10 ng/ml + hydrocortisone (concentration not given)) [pg/mL],"% inhibition [1, 3] [%]","% of the control [1, 3] [%]",Amount of TNF-α determined ([1]; TPA 10 ng/ml + 0.01% of piperonal) [pg/mL],Amount of TNF-α determined ([1]; TPA 10 ng/ml + 0.05% of piperonal) [pg/mL],Amount of TNF-α determined ([1]; TPA 10 ng/ml + 0.1% of piperonal) [pg/mL],% of the control ([1]; TPA + 0.01% of piperonal) [%],% inhibition ([1]; TPA + 0.05% of piperonal) [%],% of the control ([1]; TPA + 0.05% of piperonal) [%],% inhibition ([1]; TPA + 0.1% of piperonal) [%],% of the control ([1]; TPA + 0.1% of piperonal) [%],Amount of TNF-α determined ([2]; No TPA + 0.01% of piperonal) [pg/mL],Amount of TNF-α determined ([2]; No TPA + 0.05% of piperonal) [pg/mL],Amount of TNF-α determined ([2]; No TPA + 0.1% of piperonal) [pg/mL],cytotoxic activity (keratinocytes)
"C[C@]12CCC(=O)C=C1CC[C@@H]1[C@@H]2[C@@H](O)C[C@@]2(C)[C@H]1CC[C@]2(O)C(=O)CO [hydrocortisone, reference compound]",220.4,26.4,73.6,–,–,–,–,–,–,–,–,–,–,–,–
"O=Cc1ccc2c(c1)OCO2 [piperonal, 3,4-(methylenedioxy)benzaldehyde]",–,–,–,331.2,78.1,100.6,110.6,73.9,26.1,66.4,33.6,7.9,8.9,6.3,does not exhibit cytotoxic activity
